The source of these data is patent US6500810B2, “Method of regulating expression of adhesion molecules on circulating leukocytes” (Sky High, LLC, priority 1999, dated 2002).

Structures are written as SMILES.

In the assay the test system is CD18. The assay is described as follows: Flow cytometry of CD18 on isolated rat neutrophils stimulated with LTB4. As to conditions: in vitro. The assay is classed as cell-based. As for the experimental part:
Flow cytometric analysis of CD18 complex in rat neutrophils was performed according to standard procedures as described in Vedder & Harlan, J. Clin. Invest., 81:676-682 (1988). Rat neutrophils were freshly isolated from rat whole blood according to the method of Williams et al., J. Leukocyte Biol., 42:455-462 (1987). Isolated neutrophils were washed twice in calcium-free Tyrode's solution containing 0.2% bovine serum albumin (BSA) and suspended in RPMI1630 medium. Neutrophils (5×10^5 cells/tube) were incubated with a monoclonal antibody directed against CD18 (Endogen, Boston, Mass.) at 4° C. for 30 minutes. Excess primary antibody was then removed by washing the platelets or neutrophils in RPMI1630. A goat anti-human gig F(AB′)2 FITC conjugate was used as the secondary antibody at a 1:100 dilution (4° C. for 30 minutes). The stained neutrophils were washed twice with RPMI1630 and finally fixed in 1% paraformaldehyde, and then analyzed by flow cytometry (FACScan, Becton-Dickinson, San Jose, Calif.).

As to `CCCCCCCC/C=C\CCCCCCCC(=O)OCC(COP(O)(O)=S)OC` (racemic) [LXR-1035, rac-1-thiophosphate-2-O-methyl-3-oleioyl-glycerol], the “cell surface expression of the adhesion molecule CD18” value was “inhibits”.
